This note sets out measurements from patent US20250145589A1, “PYRIDINE DERIVATIVE AND USE THEREOF” (SICHUAN HUIYU PHARMACEUTICAL CO., LTD., priority 2021, published 2025).

One test deals with PI3Kα (Homo sapiens (Human), UniProt P42336). The test is described as follows: Inhibition of PI3Kα efficacy assay (ADP-Glo kinase assay). Type of test: biochemical. The conditions noted are these: read-out: PI3Kα inhibitory activity (IC50). The procedure, abridged:
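Eight five-fold dilutions of compound (2 mM DMSO stock) tested; kinase reaction with PI and ATP ran 60 min at RT, followed by ADP-Glo and detection reagent steps of 40 min each. Four-parameter logistic fitting gave IC50 values.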

The subject of test [1] is NCI-H358-AMGR drug-resistant cell line. The test can be described thus: NCI-H358-AMGR drug-resistant cell proliferation inhibitory activity test. The conditions noted are these: 72 h; NCI-H358-AMGR drug-resistant cells, 3 days incubation, CellTiter-Glo. Type of test: cell-based. The procedure, abridged: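 Luminescent CellTiter-Glo read-out after 3-day, 37° C compound exposure (8 points, 5-fold series) of AMG510-resistant NCI-H358 cells plated at 4×10^3 per well.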

The subject of test [2] is MIA PaCa-2 cells (KRAS G12C mutant). The test is described as follows: MIA PaCa-2 cell anti-proliferation (CellTiter-Glo). Type of test: cell-based. Conditions: Homo sapiens, 72 h; MIA Paca-2 cells, 3 days, Table 7; read-out: MIA PaCa-2 (IC50). The procedure, abridged:
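Viable-cell luminescence (CellTiter-Glo, ≥30 min at 25 °C) measured after a 3-day, 37 °C exposure to compounds at 9 points, 4-fold spaced, in DMEM containing 10% FBS plus 2.5% horse serum. IC50 derived versus no-inhibitor wells.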

The target in the next test is PI3Kδ (Homo sapiens (Human), UniProt O00329). The test can be described thus: Inhibition of PI3Kδ efficacy assay (ADP-Glo kinase assay). It is filed as biochemical. The conditions noted are these: read-out: PI3Kδ inhibitory activity (IC50). The procedure, abridged: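 Luminescent ADP-Glo readout of PI3Kδ: after a 60 min RT reaction with PI/ATP substrate, ATP depletion (40 min) and ADP detection (40 min) steps followed. Compounds tested as eight five-fold serial dilutions; inhibition rates fitted to log(inhibitor) vs. response, variable slope, for IC50.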

A further test deals with KRAS^G12C-SOS1 (Homo sapiens (Human), UniProt P01116, G12C). The test can be described thus: HTRF KRAS G12C/SOS1 binding assay. The conditions noted are these: Table 5. The procedure, abridged:
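Compound was serially diluted five-fold over eight points, with a 2 mM DMSO stock. After anti-tag-Tb3+ and anti-tag-XL665 were added, plates were incubated 3 h at 4 °C and read by HTRF (ex 337 nm, em 620/665 nm ratio). IC50 values come from four-parameter variable-slope fits.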

Each structure is given as a SMILES string. Where two headings read alike, the source gives them in different places.

PI3Kδ, sequence (O00329 whole entry): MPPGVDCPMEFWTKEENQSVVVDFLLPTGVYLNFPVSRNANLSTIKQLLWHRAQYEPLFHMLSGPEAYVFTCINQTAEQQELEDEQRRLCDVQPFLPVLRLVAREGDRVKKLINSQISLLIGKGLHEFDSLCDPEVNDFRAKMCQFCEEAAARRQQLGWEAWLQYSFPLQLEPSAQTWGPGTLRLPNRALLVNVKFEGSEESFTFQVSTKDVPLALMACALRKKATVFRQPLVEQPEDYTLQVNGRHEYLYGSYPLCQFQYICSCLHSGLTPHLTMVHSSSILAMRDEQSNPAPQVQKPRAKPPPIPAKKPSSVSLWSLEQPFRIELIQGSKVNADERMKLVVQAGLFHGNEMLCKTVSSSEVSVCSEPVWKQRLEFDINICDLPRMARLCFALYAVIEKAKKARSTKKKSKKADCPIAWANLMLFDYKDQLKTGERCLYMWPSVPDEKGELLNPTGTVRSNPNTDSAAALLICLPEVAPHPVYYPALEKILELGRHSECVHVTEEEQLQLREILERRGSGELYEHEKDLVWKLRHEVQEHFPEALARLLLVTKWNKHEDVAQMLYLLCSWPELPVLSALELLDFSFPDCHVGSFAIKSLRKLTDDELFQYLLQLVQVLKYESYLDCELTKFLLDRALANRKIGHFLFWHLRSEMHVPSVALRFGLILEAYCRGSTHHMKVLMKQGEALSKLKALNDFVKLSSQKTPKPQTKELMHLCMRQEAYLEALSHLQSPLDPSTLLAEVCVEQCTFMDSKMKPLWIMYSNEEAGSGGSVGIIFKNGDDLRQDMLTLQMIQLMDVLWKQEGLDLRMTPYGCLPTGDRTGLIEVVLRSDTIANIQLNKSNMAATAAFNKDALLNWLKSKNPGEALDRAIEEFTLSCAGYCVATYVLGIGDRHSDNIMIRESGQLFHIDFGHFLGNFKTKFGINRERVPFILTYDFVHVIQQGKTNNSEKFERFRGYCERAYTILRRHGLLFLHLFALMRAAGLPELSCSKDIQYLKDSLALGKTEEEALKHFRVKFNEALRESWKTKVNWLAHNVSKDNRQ
PI3Kδ, sequence (P27986 whole entry partner): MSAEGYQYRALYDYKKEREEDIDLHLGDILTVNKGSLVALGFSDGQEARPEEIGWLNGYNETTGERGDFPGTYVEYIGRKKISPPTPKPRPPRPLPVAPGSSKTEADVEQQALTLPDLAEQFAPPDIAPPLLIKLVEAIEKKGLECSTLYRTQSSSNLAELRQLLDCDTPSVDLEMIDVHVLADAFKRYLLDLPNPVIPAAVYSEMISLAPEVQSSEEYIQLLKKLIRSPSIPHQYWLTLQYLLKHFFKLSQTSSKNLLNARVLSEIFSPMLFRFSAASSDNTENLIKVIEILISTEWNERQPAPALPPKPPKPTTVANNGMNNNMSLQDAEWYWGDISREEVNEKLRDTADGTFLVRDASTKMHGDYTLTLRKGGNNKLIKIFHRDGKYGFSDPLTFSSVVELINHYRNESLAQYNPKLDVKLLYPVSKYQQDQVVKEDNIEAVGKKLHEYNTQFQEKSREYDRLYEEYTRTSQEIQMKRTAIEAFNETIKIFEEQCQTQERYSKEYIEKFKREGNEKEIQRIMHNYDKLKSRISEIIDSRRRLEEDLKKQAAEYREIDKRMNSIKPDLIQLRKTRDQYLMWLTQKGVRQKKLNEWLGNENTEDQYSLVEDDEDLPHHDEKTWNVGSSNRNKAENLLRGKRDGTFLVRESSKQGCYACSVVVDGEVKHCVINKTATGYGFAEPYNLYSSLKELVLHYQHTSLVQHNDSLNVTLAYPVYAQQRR
PI3Kα, sequence (P42336 whole entry): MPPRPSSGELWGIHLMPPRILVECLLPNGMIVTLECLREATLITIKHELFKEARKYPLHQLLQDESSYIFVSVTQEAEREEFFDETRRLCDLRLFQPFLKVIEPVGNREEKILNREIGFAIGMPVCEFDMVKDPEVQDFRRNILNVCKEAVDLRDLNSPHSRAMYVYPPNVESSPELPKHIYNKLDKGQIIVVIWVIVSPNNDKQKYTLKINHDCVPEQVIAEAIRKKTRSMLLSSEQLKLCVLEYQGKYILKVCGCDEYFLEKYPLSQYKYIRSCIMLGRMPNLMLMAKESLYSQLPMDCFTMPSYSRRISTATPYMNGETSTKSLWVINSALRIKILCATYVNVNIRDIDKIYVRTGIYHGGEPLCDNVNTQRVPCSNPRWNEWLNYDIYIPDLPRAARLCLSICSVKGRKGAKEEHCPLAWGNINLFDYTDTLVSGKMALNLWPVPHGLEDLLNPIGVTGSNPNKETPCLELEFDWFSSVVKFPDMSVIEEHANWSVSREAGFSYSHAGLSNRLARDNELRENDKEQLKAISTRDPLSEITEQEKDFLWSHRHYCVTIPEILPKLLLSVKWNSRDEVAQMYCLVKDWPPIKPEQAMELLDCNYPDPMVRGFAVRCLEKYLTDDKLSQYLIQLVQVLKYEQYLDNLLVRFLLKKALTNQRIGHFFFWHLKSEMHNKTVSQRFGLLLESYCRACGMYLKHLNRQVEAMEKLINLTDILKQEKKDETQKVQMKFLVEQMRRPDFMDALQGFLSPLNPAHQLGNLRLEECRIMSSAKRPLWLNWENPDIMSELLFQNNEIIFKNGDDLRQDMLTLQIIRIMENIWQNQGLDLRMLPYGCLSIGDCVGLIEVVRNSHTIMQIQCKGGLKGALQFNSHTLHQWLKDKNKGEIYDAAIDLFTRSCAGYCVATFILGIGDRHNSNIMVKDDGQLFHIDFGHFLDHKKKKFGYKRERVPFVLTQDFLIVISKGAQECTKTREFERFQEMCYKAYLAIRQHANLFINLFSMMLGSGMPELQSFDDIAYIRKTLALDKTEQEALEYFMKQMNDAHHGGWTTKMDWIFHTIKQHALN
PI3Kα, sequence (P27986 whole entry partner): as the sequence (P27986 whole entry partner) above
KRAS^G12C-SOS1, sequence (P01116-2 other isoform, or with tags, fused parts or gaps G12C): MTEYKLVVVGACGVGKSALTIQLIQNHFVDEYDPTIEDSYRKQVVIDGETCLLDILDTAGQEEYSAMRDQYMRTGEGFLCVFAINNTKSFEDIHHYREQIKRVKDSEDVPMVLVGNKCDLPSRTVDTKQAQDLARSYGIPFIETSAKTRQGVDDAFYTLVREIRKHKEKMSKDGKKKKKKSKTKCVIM

As for `C=C(C(C)=O)C(=O)N1CCN(c2ncnc3ccc(-c4cnc(OC)c(NS(=O)(=O)c5ccc(F)cc5F)c4)cc23)CC1` [Example 168, 2,4-difluoro-N-(2-methoxy-5-(4-(4-(2-methylene-3-oxobutanoyl)piperazin-1-yl)quinazolin-6-yl)pyridin-3-yl)benzenesulfonamide], the IC50 came to 0.0062 µM at PI3Kα (Table 4); 0.24 µM in test [1]; 0.0485 µM in test [2]; 0.0172 µM on PI3Kδ (Table 4); 0.546 µM on KRAS^G12C-SOS1.
For `COc1ncc(-c2ccc3ncnc(N4CC5CCC4CN5C(=O)/C=C/C(C)=O)c3c2)cc1NS(=O)(=O)c1ccc(F)cc1F` (centres unmarked) [Example 158, (E)-2,4-difluoro-N-(2-methoxy-5-(4-(5-(4-oxopent-2-enoyl)-2,5-diazabicyclo[2.2.2]octan-2-yl)quinazolin-6-yl)pyridin-3-yl)benzenesulfonamide], the IC50 on PI3Kα (Table 4) is 0.003 µM; in test [1], 0.155 µM; in test [2] it was 0.14 µM; on PI3Kδ (Table 4) it was 0.0346 µM; on KRAS^G12C-SOS1 it was 0.191 µM.
With `COc1ccc(Cl)c(S(=O)(=O)Nc2cc(-c3ccc4ncnc(N5CCN(C(=O)/C=C/C(C)=O)CC5)c4c3)cnc2OC)c1` [Example 184, (E)-2-chloro-5-methoxy-N-(2-methoxy-5-(4-(4-(4-oxopent-2-enoyl)piperazin-1-yl)quinazolin-6-yl)pyridin-3-yl)benzene-sulfonamide], the IC50 amounted to 0.00081 µM at PI3Kα (Table 4); 0.135 µM in test [1]; 0.0602 µM in test [2]; 0.0162 µM at PI3Kδ (Table 4); 0.365 µM on KRAS^G12C-SOS1.
With `COc1ncc(-c2ccc3ncnc(C4CCN(C(=O)/C=C/C(C)=O)CC4)c3n2)cc1NS(=O)(=O)c1ccc(F)cc1F` [Example 234, (E)-2,4-difluoro-N-(2-methoxy-5-(4-(1-(4-oxopent-2-enoyl)piperidin-4-yl)pyrido[3,2-d]pyrimidin-6-yl)pyridin-3-yl)benzenesulfonamide], the 50% inhibitory concentration (IC50) amounted to 0.0042 µM on PI3Kα (Table 4); 0.0582 µM in test [1]; 0.0149 µM in test [2]; 0.02 µM at PI3Kδ (Table 4); 0.292 µM at KRAS^G12C-SOS1.
For `COc1ncc(-c2ccc3ncnc(N4CCN(C(=O)/C=C/C(C)=O)CC4)c3c2)cc1NS(=O)(=O)c1ccc(F)cc1Cl` [Example 169, (E)-2-chloro-4-fluoro-N-(2-methoxy-5-(4-(4-(4-oxopent-2-enoyl)piperazin-1-yl)quinazolin-6-yl)pyridin-3-yl)benzenesulfonamide], the IC50 on PI3Kα (Table 4) stood at 0.0038 µM; in test [1], 0.0362 µM; in test [2] it was 0.0317 µM; on PI3Kδ (Table 4), 0.0189 µM; on KRAS^G12C-SOS1, 0.249 µM.
The like results for `COc1ncc(-c2ccc3ncnc(C4=CCN(C(=O)/C=C/C(C)=O)CC4)c3c2)cc1NS(=O)(=O)c1c(F)cccc1Cl` [Example 202, (E)-2-chloro-6-fluoro-N-(2-methoxy-5-(4-(1-(4-oxopent-2-enoyl)-1,2,3,6-tetrahydropyridin-4-yl)quinazolin-6-yl)pyridin-3-yl)benzene-sulfonamide] were, in that order, 0.0019 µM, 0.0096 µM, 0.0116 µM, 0.0279 µM and 0.142 µM.
Regarding `COc1ncc(-c2ccc3ncnc(N4CCN(C(=O)/C=C/C(C)=O)CC4)c3c2)cc1NS(=O)(=O)c1ccc(F)cc1F` [Example 6, (E)-2,4-difluoro-N-(2-methoxy-5-(4-(4-(4-oxopent-2-enoyl)piperazin-1-yl)quinazoline-6-yl)pyridin-3-yl)benzenesulfonamide], the half-maximal inhibitory concentration (IC50) worked out at 0.0156 µM in test [1], 0.0171 µM in test [2], 0.0109 µM on PI3Kδ (Table 1) and 0.323 µM at KRAS^G12C-SOS1.
Turning to `C=CC(=O)N1CCN(c2ncnc3ccc(-c4cnc(OC)c(NS(=O)(=O)c5ccc(F)cc5F)c4)cc23)[C@@H](C)C1` [Example 7, (S)—N-(5-(4-(4-acryloyl-2-methylpiperazin-1-yl)quinazolin-6-yl)-2-methoxypyridin-3-yl)-2,4-difluorobenzenesulfonamide], the IC50 at PI3Kα (Table 1) was determined as 0.0014 µM; in test [1], 0.0417 µM; in test [2] it was 0.0323 µM; at PI3Kδ (Table 1), 0.012 µM.
In the case of `CC(=O)/C=C/C(=O)N1CCN(c2ncnc3ccc(-c4cnc(OCC(F)(F)F)c(NS(=O)(=O)c5ccc(F)cc5F)c4)cc23)CC1` [Example 159, (E)-2,4-difluoro-N-(5-(4-(4-(4-oxopent-2-enoyl)piperazin-1-yl)quinazolin-6-yl)-2-(2,2,2-trifluoroethoxy)pyridin-3-yl)benzenesulfonamide], the IC50 at PI3Kα (Table 4) was 0.0118 µM; in test [1], 0.361 µM; in test [2], 0.357 µM; at PI3Kδ (Table 4) it was 0.0917 µM.
On to `COC(=O)c1ncc(-c2ccc3ncnc(N4CCN(C(=O)/C=C/C(C)=O)CC4)c3c2)cc1NS(=O)(=O)c1ccc(F)cc1F` [Example 181, methyl (E)-3-((2,4-difluoro-phenyl)sulfonamido)-5-(4-(4-(4-oxopent-2-enoyl)piperazin-1-yl)quinazolin-6-yl)picolinate], for which the IC50 stood at 0.00073 µM on PI3Kα (Table 4), 0.284 µM in test [1], 0.0562 µM in test [2] and 0.0204 µM at PI3Kδ (Table 4).
Regarding `COc1ncc(-c2ccc3ncnc(N4CCN(C(=O)/C=C/C(C)=O)CC4)c3c2)cc1NS(=O)(=O)c1ccc(C#N)cc1F` [Example 123, (E)-4-cyano-2-fluoro-N-(2-methoxy-5-(4-(4-(4-oxopent-2-enoyl)piperazin-1-yl)quinazolin-6-yl)pyridin-3-yl)benzenesulfonamide], the half-inhibitory concentration (IC50) came to 0.0091 µM on PI3Kα (Table 2), 0.118 µM in test [1], 0.0841 µM in test [2] and 0.0314 µM on PI3Kδ (Table 2).
As for `COc1ncc(-c2ccc3ncnc(N4CCC5(CC=CC5=O)CC4)c3c2)cc1NS(=O)(=O)c1ccc(F)cc1F` [Example 70, 2,4-difluoro-N-(2-methoxy-5-(4-(1-oxo-8-azaspiro[4,5]dec-2-en-8-yl)quinazolin-6-yl)pyridin-3-yl)benzenesulfonamide], the half-inhibitory concentration (IC50) stood at 0.0088 µM at PI3Kα (Table 2), 0.0745 µM in test [1], 0.0401 µM in test [2] and 0.035 µM on PI3Kδ (Table 2).
Turning to `COc1ncc(-c2ccc3ncnc(N4CCN(C(=O)/C=C/C(C)=O)CC4)c3c2)cc1NS(C)(=O)=O` [Example 170, (E)-N-(2-methoxy-5-(4-(4-(4-oxopent-2-enoyl)piperazin-1-yl)quinazolin-6-yl)pyridin-3-yl)methane-sulfonamide], the IC50 at PI3Kα (Table 4) was determined as 0.007 µM; in test [1], 0.38 µM; in test [2], 0.118 µM; at PI3Kδ (Table 4), 0.017 µM.
`[2H]C([2H])([2H])Oc1ncc(-c2ccc3ncnc(N4CCN(C(=O)/C=C/C(C)=O)CC4)c3c2)cc1NS(=O)(=O)c1ccc(F)cc1F` [Example 191, (E)-2,4-difluoro-N-(2-(methoxy-d3)-5-(4-(4-(4-oxopent-2-enoyl)piperazin-1-yl)quinazolin-6-yl)pyridin-3-yl)benzene-sulfonamide]: the concentration for half-maximal inhibition (IC50) in test [1] was determined as 0.0364 µM; in test [2] it was 0.0542 µM; on PI3Kδ (Table 4), 0.0167 µM; on KRAS^G12C-SOS1, 0.143 µM.
As to `COc1ncc(-c2ccc3ncnc(N4CCN(C5CN(C(=O)/C=C/C(C)=O)C5)CC4)c3c2)cc1NS(=O)(=O)c1ccc(F)cc1F` [Example 56, (E)-2,4-difluoro-N-(2-methoxy-5-(4-(4-(1-(4-oxopent-2-enoyl)azetidin-3-yl)piperazin-1-yl)quinazolin-6-yl)pyridin-3-yl)benzenesulfon-amide], the IC50 at PI3Kα (Table 2) was 0.0044 µM; in test [1] it was 0.117 µM; on PI3Kδ (Table 2), 0.0372 µM; at KRAS^G12C-SOS1, 0.471 µM.
Consider `COc1ncc(-c2ccc3ncnc(N4CCN(C(=O)/C=C/C(C)=O)CC4)c3c2)cc1NS(=O)(=O)c1cccc(F)c1F` [Example 90, (E)-2,3-difluoro-N-(2-methoxy-5-(4-(4-(4-oxopent-2-enoyl)piperazin-1-yl)quinazolin-6-yl)pyridin-3-yl)benzenesulfonamide], for which the 50% inhibitory concentration (IC50) on PI3Kα (Table 2) is 0.004 µM; in test [1] it was 0.0562 µM; in test [2], 0.0519 µM; on PI3Kδ (Table 2), 0.0237 µM.
As for `COc1ncc(-c2ccc3ncnc(N4CCN(C(=O)/C=C/n5ccnn5)CC4)c3c2)cc1NS(=O)(=O)c1ccc(F)cc1F` [Example 10, (E)-N-(5-(4-(4-(3-(1H-1,2,3-triazol-1-yl)acryloyl)piperazin-1-yl)quinazolin-6-yl)-2-methoxypyridin-3-yl)-2,4-difluorobenzenesulfonamide], the IC50 on PI3Kα (Table 1) turned out to be 0.00044 µM; in test [1] it was 0.0866 µM; in test [2] it was 0.0832 µM; on PI3Kδ (Table 1) it was 0.0167 µM.
